Experimental data taken from patent publication US8412460B2, “Methods and systems for characterizing a cellular constituent using response profiles” (priority 2000, dated 2013).
“Also recorded” adds a separate entry of the source.

Experiments:
[1] = tested on: S. cerevisiae; experiment: Two-color cDNA microarray expression profiling of mutant or compound-treated yeast cultures (300-experiment compendium) with hierarchical clustering; type: cell-based; conditions: for mutant in the affected pathway whose profile the profile caused by the inhibitory compound resembles / DNA-damage/S-phase arrest inducible RNR2, RNR3 and RNR4 transcripts: FIG. 9B; for clustering of treatment profile with profiles from cell wall related mutants gas1Δ, spf1Δ, and amp1Δ: FIG. 11A
Description: Experimental (mutant or chemically treated) cultures were grown, harvested and processed in parallel with corresponding wild-type or control cultures. A complete list of experimental conditions is provided, below, in Table 2.
Several colonies of similar size were picked from freshly-streaked YAPD agar plates into liquid Synthetic Complete medium (SC) with 2% glucose, grown overnight at 30° C. to mid-log phase, diluted to 0.4-1.0×10^6 cells/mL, and grown an addition 5-7 hours until reaching 0.4-1.0[…], at which point they were pelleted by centrifugation from 2 minutes at room temperature and frozen in liquid nitrogen. The final optical densities of experimental and control cultures were matched as closely as possible. For experiments involving treatments with chemical compounds (including doxycycline), compounds were added at the beginning of the 5-7 hour final groth phase, with equal amounts of solvent or doxycyline added to control cultures as appropriate. Total RNA was prepared by phenol:chloroform extraction followed by ethanol precipitation as described previously (see, e.g., Marton et al., 1998, Nat. Med. 4:1293-1301) except that the step vortexing with glass beads was replaced with a 10 minute incubation at 65° C. followed by 1 minute of vortexing. Poly-A+ RNA purification, cDNA labeling, microarray production, and microarray hybridization and washing were also done as previously described (e.g., in Marton et al., supra) with measurements taken in fluor-reversed pairs. Arrays were scanned, images were quantitated and physical artifacts such as dust and salt residue were edited as described previously (see, e.g., Marton et aL, supra). Resulting data files were evaluated by a series of quality-control criteria relating, first, to the image itself and, second, to known biological artifacts. For purposes of illustrating the impact of biases, experiments flagged as containing biological artifacts were noted by were not excluded from subsequent data analysis steps.
Clustering analysis of the perturbation response profiles was done as described, below, in Section 5.2.4. Specifically, the analysis comprised two steps. First, profiles and transcripts were selected from a data matrix and, second, experiments and responsive genes were grouped by agglomerative hierarchical clustering (see Hartigan, 1975, Clustering Algorithms, John Wiley & Sons, New York) where the similarity measure is the error-weighted correlation coefficient provided in Equation 11 below. Genes and experiments (i.e., columns and rows, respectively, of the data matrix) were then re-ordered according to the resulting clustering similarity trees. A statistical significance (i.e., a P-value) was also calculated for each bifurcation in the resulting cluster tree using the methods for determining statistical significance of cluster groups which are also described, below, in Section 5.2.4.
Using a two-color cDNA microarray hybridization assay (see, Schena et al., 1995, Science 270:467-470), three hundred expression profiles were generated in S. cerevisiae in which transcript levels of a mutant or compound-treated culture were compared to that of a wild-type or mock-treated culture. 276 deletion mutants, 11 tetracycline-regulatable alleles of essential genes (Gari et al., 1997, Yeast 13:837-848) and 13 well-characterized compounds were profile. Sixty-nine of the 276 deletions were of uncharacterized open reading frames (ORFs). To allow direct comparison of the behavior of all genes in response to all mutations and treatments, experiments were performed under a single condition: cells were grown at 30° C. in liquid synthetic complete SC) medium plus 2% glucose to mid-log phase, with the final optical densities of the experimental and control cultures closely matched (see Section 6.1 above). […]

[2] = molecular target: yeast Erg2 enzyme (Saccharomyces cerevisiae, UniProt P32352); conditions: cited from earlier work
yeast Erg2 enzyme, sequence (P32352 whole entry): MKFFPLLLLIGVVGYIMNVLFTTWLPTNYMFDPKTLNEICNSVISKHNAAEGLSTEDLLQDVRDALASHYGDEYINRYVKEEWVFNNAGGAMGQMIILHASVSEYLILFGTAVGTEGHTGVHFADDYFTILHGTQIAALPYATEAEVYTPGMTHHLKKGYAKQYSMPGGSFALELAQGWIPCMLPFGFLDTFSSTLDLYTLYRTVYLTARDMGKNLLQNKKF

[3] = molecular target: T1, Erg2p, the sterol C-8 isomerase (Saccharomyces cerevisiae, UniProt P32352); experiment: Sterol profiles by gas chromatography of the nonsaponifiable fraction; type: cell-based, yeast; conditions: dyclonine-treated cells, FIG. 11F
T1 construct: endogenous in cells; host or cells: S. cerevisiae, Saccharomyces Genome Deletion Consortium strain background
T1 sequence (P32352 whole entry): as above
Description: Sterols were identified using pure standards and on the basis of relative retention times. Nonsaponifiables were isolated from yeast as previously described (Molzahn and Woods, 1972, J Gen. Microbiol. 72:339-348). Gas chromatography (GC) analyses of the nonsaponifiable fraction were analyzed on a HP5890 series II GC equipped with the HP chemstation software. The capillary column (DB5) was 15 m×0.25 mm i.d., 0.2 μm film thickness and was programmed from 195 fC to 300 fC (195 fC for 3 min., 5.5 fC/min. to 300 fC then held for 10 min.). The linear velocity was 30 cm/s using nitrogen and the carrier gas and all injections were run in the splitless mode.

[4] = tested on: wild type yeast cells; conditions: levels that give maximal repression of promoter activity (10 micrograms/nil); cited from earlier work

Compound: tunicamycin
- mutant in the affected pathway whose profile the profile caused by the inhibitory compound resembles [1]: gas1
- clustering of treatment profile with profiles from cell wall related mutants gas1Δ, spf1Δ, and amp1Δ [1]: form a discrete cluster together with

Compound: N[C@H]1C(O)O[C@H](CO)[C@@H](O)[C@@H]1O (stereo partly shown) [glucosamine]
- mutant in the affected pathway whose profile the profile caused by the inhibitory compound resembles [1]: gas1
- clustering of treatment profile with profiles from cell wall related mutants gas1Δ, spf1Δ, and amp1Δ [1]: form a discrete cluster together with

Compound: COS(C)(=O)=O [MMS]
- DNA-damage/S-phase arrest inducible RNR2, RNR3 and RNR4 transcripts [1]: induced

Compound: O=C(CCCN1CCC(O)(c2ccc(Cl)cc2)CC1)c1ccc(F)cc1 [haloperidol]
- binding and inhibition of the yeast Erg2 enzyme [2]: binds and inhibits

Compound: O=CC[C@@H](O)[C@H](O)[C@H](O)CO [2-deoxy-D-glucose]
- mutant in the affected pathway whose profile the profile caused by the inhibitory compound resembles [1]: gas1
- clustering of treatment profile with profiles from cell wall related mutants gas1Δ, spf1Δ, and amp1Δ [1]: form a discrete cluster together with

Compound: CCC(C)n1ncn(-c2ccc(N3CCN(c4ccc(OCC5COC(Cn6cncn6)(c6ccc(Cl)cc6Cl)O5)cc4)CC3)cc2)c1=O (stereo not shown) [itraconzaole]
- mutant in the affected pathway whose profile the profile caused by the inhibitory compound resembles [1]: erg/11

Compound: C[C@@H]1C[C@@H]([C@H](O)CC2CC(=O)NC(=O)C2)C(=O)[C@@H](C)C1 [cycloheximide]
- mutant in the affected pathway whose profile the profile caused by the inhibitory compound resembles [1]: yef3
- clustering of treatment profile with ribosome subunit deletion profiles ([1]; all regulations greater than 1.5-fold masked, small regulations used as basis of clustering): this profile cluster gains additional translation-related experiments

Compound: CC[C@H](C)C(=O)O[C@H]1C[C@@H](C)C=C2C=C[C@H](C)[C@H](CC[C@@H]3C[C@@H](O)CC(=O)O3)[C@H]21 [lovastatin]
- correlation of transcript profile of compound treatment with profile of reduced expression of the target gene ([1]; FIG. 9E): correlates highly with the profile produced by reducing expression of HMG2

Compound: CCCCOc1ccc(C(=O)CCN2CCCCC2)cc1 [dyclonine]
- sterol accumulating in treated cells and enzyme inferred to be inhibited (GC analysis) [3]: buildup of fecosterol, indicating inhibition of Erg2p
- sterol content of treated cells (GC analysis) [3]: abnormal
- expression profile of drug-treated yeast compared with the compendium profiles ([1]; six hour treatment with 0.063% dyclonine (FIG. 11E)): correlates most closely with the response profile obtained from a cell line in which the erg2p gene has been “knocked out.”; also recorded: most closely resembled profiles resulting from perturbation of the ergosterol pathway

Compound: NC(=O)NO [hydroxyurea]
- DNA-damage/S-phase arrest inducible RNR2, RNR3 and RNR4 transcripts [1]: induced
- mutant in the affected pathway whose profile the profile caused by the inhibitory compound resembles [1]: rnr1

Compound: C[C@H]1c2cccc(O)c2C(=O)C2=C(O)[C@]3(O)C(=O)C(C(N)=O)=C(O)[C@@H](N(C)C)[C@@H]3[C@@H](O)[C@@H]21 [doxycycline]
- effect on the growth rate on wild type yeast cells [4]: no significant effect

Compound: C/C=C1\NC(=O)[C@H]2CSSCC/C=C/[C@H](CC(=O)N[C@H](C(C)C)C(=O)N2)OC(=O)[C@H](C(C)C)NC1=O [FR901,228]
- mutant in the affected pathway whose profile the profile caused by the inhibitory compound resembles [1]: rpd3
